Structures are written as SMILES. Read-outs that look alike come from different tables or passages of the source. Bounds are passed on as bounds.

The results in this text go back to US20210070748A1, “INHIBITORS OF BRUTONS TYROSINE KINASE” (Pharmacyclics LLC, priority 2015, published 2021).

One assay concerns the target T1, ITK (Homo sapiens, UniProt Q08881).
T1 sequence (Q08881 1-620): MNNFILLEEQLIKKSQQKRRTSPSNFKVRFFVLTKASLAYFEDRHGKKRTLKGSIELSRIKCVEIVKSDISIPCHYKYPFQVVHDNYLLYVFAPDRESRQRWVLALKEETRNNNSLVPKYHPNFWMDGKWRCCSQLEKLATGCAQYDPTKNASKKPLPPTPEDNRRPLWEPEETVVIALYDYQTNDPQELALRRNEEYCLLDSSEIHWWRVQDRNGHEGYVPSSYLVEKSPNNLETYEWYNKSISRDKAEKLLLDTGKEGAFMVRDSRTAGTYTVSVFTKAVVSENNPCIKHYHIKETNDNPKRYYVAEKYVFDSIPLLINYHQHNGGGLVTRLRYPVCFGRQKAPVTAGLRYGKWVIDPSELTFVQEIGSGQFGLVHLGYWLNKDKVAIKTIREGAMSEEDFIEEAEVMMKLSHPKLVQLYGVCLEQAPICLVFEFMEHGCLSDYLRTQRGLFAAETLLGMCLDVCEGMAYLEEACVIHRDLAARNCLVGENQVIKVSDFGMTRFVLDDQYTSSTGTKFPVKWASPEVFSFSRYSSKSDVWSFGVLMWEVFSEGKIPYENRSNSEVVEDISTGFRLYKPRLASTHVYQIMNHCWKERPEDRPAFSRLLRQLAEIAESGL
The experiment in a line: Inhibition of a panel of kinases, in vitro HotSpot kinase assay: ITK. Format: biochemical. The protocol:
The degree of inhibition of a panel of kinases is determined using the in vitro HotSpot kinase assay (purified enzymes, ^33P-ATP, an appropriate substrate and 1 μM ATP).

For a further assay, the target named is T2, BTK-WT (Homo sapiens, UniProt Q06187).
T2 construct: purified from insect cells as a full-length construct containing an N-terminal 6X-His tag; His6 (N); made in house; host or cells: insect cells (baculovirus Sf21 in Method B)
T2 sequence (Q06187 whole entry): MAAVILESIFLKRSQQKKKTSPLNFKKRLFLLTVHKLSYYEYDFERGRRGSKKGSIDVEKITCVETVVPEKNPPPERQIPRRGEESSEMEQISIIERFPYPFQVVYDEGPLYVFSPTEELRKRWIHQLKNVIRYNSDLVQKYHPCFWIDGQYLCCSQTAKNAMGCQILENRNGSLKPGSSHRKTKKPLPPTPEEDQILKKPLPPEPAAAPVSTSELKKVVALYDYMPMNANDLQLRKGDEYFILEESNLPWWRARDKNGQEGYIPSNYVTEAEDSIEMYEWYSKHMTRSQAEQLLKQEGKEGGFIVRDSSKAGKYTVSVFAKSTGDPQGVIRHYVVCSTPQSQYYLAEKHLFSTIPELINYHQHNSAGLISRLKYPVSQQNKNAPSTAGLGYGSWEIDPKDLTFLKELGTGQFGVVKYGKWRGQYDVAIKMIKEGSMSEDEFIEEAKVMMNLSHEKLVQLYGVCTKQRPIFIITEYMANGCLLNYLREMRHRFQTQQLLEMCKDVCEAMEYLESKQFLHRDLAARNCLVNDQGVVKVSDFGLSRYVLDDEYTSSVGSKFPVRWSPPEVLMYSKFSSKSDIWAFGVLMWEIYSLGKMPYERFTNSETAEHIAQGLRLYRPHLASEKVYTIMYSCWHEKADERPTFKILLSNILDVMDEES
The experiment in a line: Btk in vitro inhibitory activity (one of Method A TR-FRET, Method B electrophoretic mobility shift, Method C radiometric filter binding). Conditions: read-out: IC50 BTK-WT. Format: biochemical. The protocol: Btk kinase activity is determined using a time-resolved fluorescence resonance energy transfer (TR-FRET) methodology. Measurements are performed in a reaction volume of 50 μL using 96-well assay plates. […] The reaction is quenched by the addition of 1.2 equivalents of EDTA (relative to divalent cation) in 25 μL of 1× Lance buffer (Perkin-Elmer). […] The TR-FRET signal is measured on a multimode plate reader with an excitation wavelength (λEx) of 330 nm and detection wavelengths (λEm) of 615 and 665 nm. Activity is determined by the ratio of the fluorescence at 665 nm to that at 615 nm. For each compound, enzyme activity is measured at various concentrations of compound. Negative control reactions are performed in the absence of inhibitor in replicates of six, and two no-enzyme controls are used to determine baseline fluorescence levels. Inhibition constants, Ki(app), were obtained using the program BatchKi(Kuzmic et al. (2000), Anal. Biochem. 286:45-50). IC50s are obtained according to the equation:
IC50={Ki(app)/(1+[ATP]/Km^ATP)}+[E]total/2;
Kinase activity is measured in vitro using electrophoretic mobility shift assay. The kinase reactions are assembled in a total volume of 25 μL in 384 well plates. […] The reaction is incubated for one hour and is quenched by the addition of 45 μL of termination buffer (100 mM HEPES, pH7.5, 0.01% Triton X-100, 30 mM EDTA). The terminated reactions are analyzed using 12 channel LabChip® 3000 microfluidic detection instrument (Caliper Life Sciences). […] Change in the relative fluorescence intensity of the substrate and product peaks is the parameter measured, reflecting enzyme activity. In the presence of an inhibitor, the ratio between product and substrate is altered: the signal of the product decreases, while the signal of the substrate increases.
Activity in each sample is determined as the product to sum ratio (PSR): P/(S+P), where P is the peak height of the product peptide and S is the peak height of the substrate peptide. For each compound, enzyme activity is measured at various concentrations (12 concentrations of compound spaced by 3× dilution intervals). Negative control samples (0%-inhibition in the absence of inhibitor) and positive control samples (100%-inhibition, in the presence of 20 mM EDTA) are assembled in replicates of four and are used to calculate %-inhibition values for each inhibitor at each concentration. Percent inhibition (Pinh) is determined using following equation:
Pinh=(PSR0%-PSRinh)/(PSR0%−PSR100%)*100, where PSRinh is the product sum ratio in the presence of inhibitor, PSR0% is the average product sum ration in the absence of inhibitor and PSR100% is the average product sum ratio in 100%-inhibition control samples;
The IC50 values of inhibitors are determined by 4 parameter sigmoidal dose-response model fitting of the inhibition curves (Pinh versus inhibitor concentration) using XLfit 4 software.
Human Btk kinase (Genbank accession # NP_000052) was purified from insect cells as a full-length construct containing an N-terminal 6X-His tag. Btk kinase activity was determined using a radiometric filter binding assay. Measurements are performed in a low μL reaction volume 384-well assay plates. […] IC50 values and curve fits were obtained using Prism (GraphPad Software).
For orientation: A gel shift assay detects complexes by their altered migration in electrophoresis.

Where [1] appears, read: Table 13, A compounds, 1 μM ATP.
[2] abbreviates: Table 15, C compounds, 1 μM ATP.

As a reminder, the IC50 is the midpoint of a concentration-inhibition curve. `C=CC(=O)N[C@@H]1CCCN(c2nnc(C(N)=O)c(Nc3ccc(C(C)C)cc3)n2)C1` [Example A-94, (R)-3-(3-acrylamido-piperidin-1-yl)-5-(4-isopropylphenylamino)-1,2,4-triazine-6-carboxamide]: the IC50 was in the range of 0.1 to 1 µM against ITK (setting [1]) and 0.01 to 0.1 µM at BTK-WT (Table 13, A compounds).
Regarding `C=CC(=O)N1CCC[C@@H](N(C(=O)C=C)c2nnc(C(N)=O)c(Nc3ccc(C4(C#N)CC4)cc3)n2)C1` [Example E-39, (R)-3-(N-(1-acryloylpiperidin-3-yl)acrylamido)-5-(4-(1-cyanocyclopropyl)phenylamino)-1,2,4-triazine-6-carboxamide], the IC50 at ITK (E compounds, Table 17) was 0.1 to 1 µM; at BTK-WT (E compounds, Table 17) it was at most 0.01 µM.
On the same counts, the results for `C=CC(=O)N[C@H]1CCCC[C@@H]1Nc1nnc(C(N)=O)c(Nc2ccc(C(C)C)cc2)n1` [Example E-29, 3-((1S,2S)-2-acrylamidocyclohexyl-amino)-5-(4-isopropylphenylamino)-1,2,4-triazine-6-carboxamide] are 0.1 to 1 µM and at most 0.01 µM.
`C=CC(=O)N1CCC[C@@H](Nc2nnc(C(N)=O)c(Nc3ccc(C(C)C)cc3)n2)[C@@H]1C` (racemic) [Example C-33, 3-((2S,3R)-1-acryloyl-2-methylpiperidin-3-ylamino)-5-(4-isopropylphenylamino)-1,2,4-triazine-6-carboxamide]: the IC50 at ITK (setting [2]) is 0.01 to 0.1 µM; at BTK-WT (Table 15, C compounds), at most 0.01 µM.
As for `C=CC(=O)N1CCC[C@H](N(C)c2nnc(C(N)=O)c(Nc3ccc(C(C)C)cc3)n2)C1` [Example C-43, (S)-3-((1-acryloylpiperidin-3-yl)(methyl)amino)-5-(4-isopropylphenylamino)-1,2,4-triazine-6-carboxamide], the IC50 on ITK (setting [2]) was 0.01 to 0.1 µM; at BTK-WT (Table 15, C compounds) it was at most 0.01 µM.
With `CN(c1cnc(C(N)=O)c(Nc2ccc(C3(C)CCN(C4CC4)CC3)cc2)n1)[C@@H]1CCN(C(=O)C(F)(F)F)C1` [Example C-66, (R)-3-(4-(1-cyclopropyl-4-methylpiperidin-4-yl)phenylamino)-5-(methyl(1-(2,2,2-trifluoroacetyl)pyrrolidin-3-yl)amino)pyrazine-2-carboxamide], the IC50 at ITK (setting [2]) is at most 0.01 µM; at BTK-WT (Table 15, C compounds), at most 0.01 µM.
Turning to `C=CC(=O)N1CCCC[C@@H](Nc2nnc(C(N)=O)c(Nc3ccc(C(C)C)cc3)n2)C1` [Example E-20, (R)-3-(1-acryloylazepan-3-ylamino)-5-(4-isopropylphenylamino)-1,2,4-triazine-6-carboxamide], the IC50 is at most 0.01 µM at ITK (E compounds, Table 17) and at most 0.01 µM at BTK-WT (E compounds, Table 17).
With `C=CC(=O)N1CCC[C@H](N(C)c2nnc(C(N)=O)c(Nc3ccc(C(C)C)cc3)n2)C1` [Example E-27, (S)-3-((1-acryloylpiperidin-3-yl)(methyl)amino)-5-(4-isopropylphenylamino)-1,2,4-triazine-6-carboxamide], the IC50 is 0.01 to 0.1 µM at ITK (E compounds, Table 17) and at most 0.01 µM on BTK-WT (E compounds, Table 17).
On the same counts, the results for `C=CC(=O)N1CCC[C@@H](N(C(=O)C=C)c2nnc(C(N)=O)c(Nc3ccc(C4CC4)cc3)n2)C1` [Example E-37, (R)-3-(N-(1-acryloylpiperidin-3-yl)acrylamido)-5-(4-cyclopropylphenyl-amino)-1,2,4-triazine-6-carboxamide] are 1 to 10 µM and at most 0.01 µM.
Take `C=CC(=O)N1CCC[C@H](Nc2cnc(C(N)=O)c(Nc3ccc(-c4ncccn4)cc3)n2)C1` [Example C-36, (S)-5-(1-acryloylpiperidin-3-ylamino)-3-(4-(pyrimidin-2-yl)phenylamino) pyrazine-2-carboxamide]: the IC50 on ITK (setting [2]) is 0.1 to 1 µM; on BTK-WT (Table 15, C compounds), at most 0.01 µM.
Turning to `C=CC(=O)N1CCC[C@@H](Nc2nnc(C(N)=O)c(Nc3ccc(C4CC4)cc3)n2)C1` [Example E-36, (R)-3-(1-acryloylpiperidin-3-ylamino)-5-(4-cyclopropylphenyl-amino)-1,2,4-triazine-6-carboxamide], the IC50 was 0.01 to 0.1 µM at ITK (E compounds, Table 17) and at most 0.01 µM on BTK-WT (E compounds, Table 17).
For the compound `C=CC(=O)N1CCC[C@@H](Nc2nnc(C(N)=O)c(Nc3cccc(-c4nccs4)c3)n2)C1` [Example C-86, (R)-3-(1-acryloylpiperidin-3-ylamino)-5-(3-(thiazol-2-yl)phenylamino)-1,2,4-triazine-6-carboxamide], the IC50 at ITK (setting [2]) was 0.01 to 0.1 µM; at BTK-WT (Table 15, C compounds) it was at most 0.01 µM.
Take `C=CC(=O)N1CCC[C@H](Nc2cnc(C(N)=O)c(Nc3ccc(C(C)C)cc3)n2)C1` [Example E-101, (S)-5-(1-acryloylpiperidin-3-ylamino)-3-(4-isopropylphenylamino) pyrazine-2-carboxamide]: the IC50 on ITK (E compounds, Table 17) is 0.1 to 1 µM; at BTK-WT (E compounds, Table 17), at most 0.01 µM.
On to `C=CC(=O)N[C@H]1CCCC[C@H]1Nc1nnc(C(N)=O)c(Nc2ccc(C(C)C)cc2)n1` [Example E-25, 3-((1R,2S)-2-acrylamidocyclohexyl-amino)-5-(4-isopropylphenylamino)-1,2,4-triazine-6-carboxamide], for which the IC50 at ITK (E compounds, Table 17) is 0.1 to 1 µM; on BTK-WT (E compounds, Table 17), at most 0.01 µM.
Regarding `C=CC(=O)N[C@H]1CCCN(c2nnc(C(N)=O)c(Nc3ccc(C(C)C)cc3)n2)C1` [Example A-95, (S)-3-(3-acrylamido-piperidin-1-yl)-5-(4-isopropylphenylamino)-1,2,4-triazine-6-carboxamide], the IC50 fell in the range of 0.1 to 1 µM at ITK (setting [1]) and 0.01 to 0.1 µM on BTK-WT (Table 13, A compounds).
For `C=CC(=O)N1CCCC[C@H](Nc2nnc(C(N)=O)c(Nc3ccc(C(C)C)cc3)n2)C1` [Example C-35, (S)-3-(1-acryloylazepan-3-ylamino)-5-(4-isopropylphenylamino)-1,2,4-triazine-6-carboxamide], the IC50 against ITK (setting [2]) is 0.1 to 1 µM; on BTK-WT (Table 15, C compounds) it was at most 0.01 µM.
Regarding `C=CC(=O)N1CCC[C@@H](N(C(=O)C=C)c2nnc(C(N)=O)c(Nc3ccc(C4CC4)cc3)n2)C1` [Example C-49, (R)-3-(N-(1-acryloylpiperidin-3-yl)acrylamido)-5-(4-cyclopropylphenyl-amino)-1,2,4-triazine-6-carboxamide], the IC50 against ITK (setting [2]) was 1 to 10 µM; at BTK-WT (Table 15, C compounds), at most 0.01 µM.
Taken in the same sequence, the figures for `C=CC(=O)N1CCC[C@@H](N(C(=O)C=C)c2nnc(C(N)=O)c(Nc3ccc(C4(C#N)CC4)cc3)n2)C1` [Example C-50, (R)-3-(N-(1-acryloylpiperidin-3-yl)acrylamido)-5-(4-(1-cyanocyclopropyl)phenylamino)-1,2,4-triazine-6-carboxamide] were 0.1 to 1 µM and at most 0.01 µM.
Taken in the same sequence, the figures for `C=CC(=O)N1CCC[C@@H](Nc2nnc(C(N)=O)c(Nc3cccc(C)c3)n2)C1` [Example C-55, (R)-3-(1-acryloylpiperidin-3-ylamino)-5-(m-tolylamino)-1,2,4-triazine-6-carboxamide] were 0.01 to 0.1 µM and at most 0.01 µM.
